“Also recorded” adds a separate entry of the source. Square brackets hold non-standard residues; d marks the D form. Ends that are not written are not given here. Peptide text beside a SMILES is read from it. Phe(4-B(OH)2) = N[C@@H](Cc1ccc(B(O)O)cc1)C(=O)O; Dopa = N[C@@H](Cc1ccc(O)c(O)c1)C(=O)O
T1: DyLight488 labeled peptide DL488-BSCSB
T1 chain: DyLight488-[Phe(4-B(OH)2)]SCS[Phe(4-B(OH)2)]

B1: OSCSO (peptide)
chain: [Dopa]SCS[Dopa]

Columns and labels:
A549 cells = test: Cell uptake by confocal microscopy; format: cell-based, human; conditions: 24 h, 37 °C
Description: For cell uptake studies, A549 cell line was selected, which is a model of alveolar Type II pulmonary epithelium.[35] The uptake was performed under two conditions to test the robustness of the resultant conjugate, which represents the extracellular conditions found in different stages of cancer progression.[36] Internalization of the conjugate was first studied in standard cell culture media (∼ neutral pH). A solution of DL488 ≃ TAT was applied directly to A549 cells to a final concentration of 10 μM, without any further workup or further purification. As additional controls, (1) a conjugate DL488-BSCSB ≃ OSCSO incubated with free TAT sequence and (2) a conjugate without the disulfide bridge (DL488-BSGSB) ∼ (TAT-OSCSO) where cysteine was replaced by glycine in one of the sequences were both applied at 10 μM (Figure 7a). […] Next, we proceeded to verify that the peptide tags are robust even under metastatic tumor-like microenvironment, where acidosis is a hallmark. Consequently, the low extracellular pH can result in a more invasive phenotype (Figure 7c), which is more challenging to treat.[28] First, A549 cancer cells were subjected to acute acidification to derive cells cultured at pH 6.4.[37]−[39] Thereafter DL488 ≃ TAT and controls 1 and 2 were applied at 10 μM for 24 h. […] Therefore, the linker chemistry can potentially be adopted for more invasive cancer phenotypes.
Sample preparation protocol. 20 µL of 2 mM solutions of DL488-BSCSB and either OSCSO, OSCSO and TAT or TAT-OSCSO were mixed together to obtain 40 µL of 1 mM solution of preassembled conjugate (in 10 mM phosphate buffer pH = 8 with 10% DMSO). The conjugate was subsequently oxidized by addition of 1 µL 75 mM potassium peroxymonosulfate (Oxone®) solution in 100 mM PB, pH = 7.4 to obtain its final concentration as 1.8 mM. Prepared conjugate was used directly for the cell studies without […]
Cell culture. The human cell line A549 from adenocarcinomic lung tissue (American Type Culture Collection, Manassas, VA, US) was cultured in Dulbecco's modified Eagle medium (DMEM 4.5 g/L D-Glucose, L-Glutamine; Gibco by ThermoFisher Scientific, Germany) supplemented with 10% fetal calf serum (FCS; Sigma Aldrich, Germany) and 1% Penicillin/Streptomycin (Invitrogen, Germany) at a humified atmosphere with 37 °C and 5% CO2 . Fresh culture medium was replaced every two days and cells were subcultured after reaching 80% confluence.
Evaluation of cell uptake. A549 cells were detached by TrypLE Select (Gibco by ThermoFisher Scientific, Germany) and centrifuged 5 min at 1000 rpm. […]

BSCSB = test: Isothermal titration calorimetry (ITC), BSCSB titrated into the ligand peptide; format: binding; conditions: for binding in ITC at pH 7.4 (ligand comparison): pH 7.4, 25 °C, BSCSB titrated to YSCSY or OSCSO as ligand
Description: The pH-reversible interactions of boronic acid and catechol groups, the formation of disulfides, as well as the responsiveness of the bis-peptide system were further investigated under different conditions (Figure 5). First, the boronic acid condensation with the complementary catechol and the thermodynamic properties were assessed under pH conditions that are relevant to physiological conditions, i.e., pH = 7.4 typical for extracellular environment of normal tissues and pH 6 for acidic intracellular compartments such as endosomes.[28] Equimolar concentrations of the reacting tags were applied to investigate the thermodynamic parameters associated with the formation of the heterodimer. DyLight488 labeled peptide (DL488-BSCSB) was synthesized by connecting the commercially available NHS-ester of this dye to the N-terminus of the BSCSB sequence to enable a microscale thermophoresis (MST) experiment, in which the dissociation constant could be determined. MST measurements were performed by titrating DL488-BSCSB (2 μM) against the complementary OSCSO peptide binding partner (76 nM to 5 mM). […] Such an improvement could be explained by the lack of electrostatic repulsion due to the presence of the electroneutral serine (at physiological pH) in the sequence. […] To assess the binding constant at physiological pH and to understand the type of complex formed, isothermal titration calorimetry (ITC) measurements were performed. The raw data were plotted as heat rate versus time at pH = 6 and 7.4. (SI, Figure S16). […]
Additionally the same amount of BSCSB solution was titrated into pure water to determine the heat of dilution for reference. As a control another sequence was checked for binding with L-tyrosines instead of L-DOPA and measured as before mentioned. […]
Figure S 16: ITC titrations performed at a) pH = 7.4 and b) 6.0, showing the heat rate signals after base line correction. No heat change different from the dilution (blank) was detected for pH = 6.0. […]

[1] = quoted as stand-in for the pKa of 4-borono-phenylalanine; cited from earlier work
OSCSO = biological target: B1; test: ITC; BSCSB titrated to OSCSO (2Red); 100 mM phosphate buffer pH 7.4; independent binding model fit; conditions: both partners purified
[2] = biological target: T1, DyLight488 labeled peptide DL488-BSCSB; test: MST; DL488-BSCSB (2 μM) held constant, OSCSO titrated (76 nM to 5 mM); 100 mM phosphate buffer pH 6.0 in the presence of TCEP; the legend of Figure 5b calls it a fluorescence quenching assay; conditions: both partners purified
[3] = biological target: T1, DyLight488 labeled peptide DL488-BSCSB; test: MST; DL488-BSCSB (2 μM) held constant, OSCSO titrated (76 nM to 5 mM); 100 mM phosphate buffer pH 7.4 in the presence of TCEP; the legend of Figure 5b calls it a fluorescence quenching assay; conditions: both partners purified
[4] = standard cell culture media (∼ neutral pH), 10 μM, triplicates

DL488-BSCSB≃OSCSO-TAT (bicyclic or more) [DL488 ≃ TAT, dual responsive conjugate of TAT-OSCSO and DL488-BSCSB after addition of Oxone]
uptake in A549 cells (A549 cells; [4]): significant uptake

(DL488-BSGSB) ∼ (TAT-OSCSO) (sidechain bridge or staple) [control 2]
uptake in A549 cells (A549 cells; acidic media pH 6.4, 10 μM, no CO2, triplicates): not internalized | uptake in A549 cells (A549 cells; [4]): no uptake was observed

NC(=O)[C@H](Cc1ccc(O)c(O)c1)NC(=O)[C@H](CO)NC(=O)[C@H](CS)NC(=O)[C@H](CO)NC(=O)[C@@H](N)Cc1ccc(O)c(O)c1 [OSCSO] (H-[Dopa]SCS[Dopa]-NH2)
binding in ITC at pH 6 (BSCSB; pH 6.0, 100 mM phosphate buffer, 25 °C, BSCSB titrated into OSCSO, compared with heat of dilution): No heat change different from the dilution; also recorded: lack of binding | binding in ITC at pH 7.4 (ligand comparison) (BSCSB): significant heat change

YSCSY
binding in ITC at pH 7.4 (ligand comparison) (BSCSB): No binding

DL488-BSCSB≃OSCSO+TAT (bicyclic or more) [control 1]
uptake in A549 cells (A549 cells; [4]): no uptake was observed

Cc1ccc(B(O)O)cc1 [4-methylphenylboronic acid]
pKa [1]: ~8.9

[Phe(4-B(OH)2)]SCS[Phe(4-B(OH)2)] [BSCSB]
Kd (OSCSO): 1.8 ± 0.4 µM | stoichiometry N (OSCSO): 1.2 ± 0.1

B1
Kd [2]: > 440 µM | Kd [3]: 1.8 ± 0.4 µM
